Laboratory results as given in US20160115540A1, “PRODRUGS AND DRUGS” (Biogen MA Inc., priority 2013, published 2016).
Where a name gives a salt, the structure may show the parent alone.

System: liver
Test: Transcriptional profiling on Affymetrix GeneChips, single dose, naïve mice: liver
Format: in vivo, C57BL/6 mice
Settings: for Number of differentially expressed genes identified: Liver: Naïve, Single Dose, 100 mpk, vs Vehicle
Method: Treated mice were sacrificed at 2, 7, or 12 hours. Tissues (liver, spleen, kidney, jejunum, cortex, hippocampus, striatum and whole blood) were collected and analyzed by transcriptional profiling on mouse Affymetrix GeneChips.
Tissues (liver, spleen, kidney, jejunum, cortex, hippocampus, striatum and whole blood) were collected and analyzed by transcriptional profiling on mouse Affymetrix GeneChips.
Animals were exposed to CO2 and whole blood collected via cardiac puncture. Two 100 μl aliquots of whole blood were collected in 1.5 mL microcentrifuge tubes and snap frozen in liquid nitrogen. Peripheral (liver, spleen, kidney and jejunum) and CNS brain (cerebellum, hippocampus, striatum and cortex) tissues were harvested and snap frozen in liquid nitrogen, with special care taken to collect tissues of similar size and from the same location. All samples were stored at −80° C. until RNA extraction was conducted.
For RNA preparation, frozen tissues were placed in 2 mL RNAse-free 96-well blocks with 1.5 mL QIAzol Lysis Reagent (QIAgen) and a 3.2 mm stainless steel bead (BioSpec Products, Bartlesville, Okla.). Tissues were disrupted for four cycles of 45 seconds in a Mini-Beadbeater (Biospec Products). RNA was extracted in chloroform and the aqueous phase was mixed with an equal volume of 70% ethanol. Extracted RNA was applied to RNeasy 96 plates and purified by the spin method according to the manufacturer's protocol (RNeasy 96 Universal Tissue Protocol, QIAgen, Hilden Germany).
Automated sample amplifications and biotin labelings were carried out using the NuGEN Ovation RNA Amplification system V2 (Cat #3100), Ovation WB reagent (Cat #1300) and Encore Biotin module (Cat #4200) (NuGEN Technologies, Inc, San Carlos, Calif.) according to manufacturer's recommendations using an Arrayplex automated liquid handler (Beckman Coulter, Indianapolis, Ind.). Two micrograms of biotin labeled sscDNA probe were hybridized to Affymetrix GeneChip Affymetrix HT_MG-430_PM plate arrays with modified conditions as described in Allaire et al. Washing and staining of the hybridized arrays were completed as described in the GeneChip Expression analysis technical manual for HT plate arrays using the Genechip® Array Station (Affymetrix, Santa Clara, Calif.) with modifications as described in Allaire et al. The processed GeneChip® plate arrays were scanned using GeneTitan scanner (Affymetrix, Santa Clara, Calif.).
Affymetrix scans were subject to quality control (QC) measures. These tests included a visual inspection of the distribution of raw signal intensities and an assessment of RNA degradation, relative log expression (RLE), and normalized unsealed standard error (NUSE). All sample scans that passed these QC metrics were included in the analysis.
All CEL files were subjected to GC-content-based Robust Multi-array Average (GCRMA) normalization (version 2.20.0) (Irizarry R A, et al. Nucleic Acids Res 2003; 31:e15; Li C, et al. Genome Biol 2001; 2:[…]0032). Expression levels were log (base 2) transformed.
All calculations and analyses were carried out using R (version 2.11.1) and Bioconductor computational tools (Gentleman R. Springer Science+Business Media 2005).

[1] = liver, 100 mg/kg, 2 hr, vs matched vehicle controls

COC(=O)/C=C/C(=O)O [MMF, monomethyl fumarate]
FC 1437867_PM_at (no gene symbol) (LIVER, 100MMF-vs-Veh, 2 h): 1.50
FC 1444516_PM_at (no gene symbol) (LIVER, 100MMF-vs-Veh, 2 h): 2.19
FC 1447411_PM_at (no gene symbol) (LIVER, 100MMF-vs-Veh, 2 h): 2.81
FC 9130221J17Rik (1443159_PM_at) (LIVER, 100MMF-vs-Veh, 2 h): 1.57
FC Abcc1 (1452233_PM_at) (LIVER, 100MMF-vs-Veh, 2 h): 1.86
FC Akr1b8 (1448894_PM_at) (LIVER, 100MMF-vs-Veh, 2 h): 2.27
FC Caprin1 (1448348_PM_at) (LIVER, 100MMF-vs-Veh, 2 h): −1.56
FC Clec4d (1420804_PM_s_at) (LIVER, 100MMF-vs-Veh, 2 h): 2.05
FC Csnk2a1 (1419038_PM_a_at) (LIVER, 100MMF-vs-Veh, 2 h): −1.62
FC Figf (1438953_PM_at) (LIVER, 100MMF-vs-Veh, 2 h): 2.25
FC Figf (1438954_PM_x_at) (LIVER, 100MMF-vs-Veh, 2 h): 1.79
FC Fxr1 (1452247_PM_at) (LIVER, 100MMF-vs-Veh, 2 h): −1.53
FC Gclc (1424296_PM_at) (LIVER, 100MMF-vs-Veh, 2 h): 1.72
FC Gclc (1455959_PM_s_at) (LIVER, 100MMF-vs-Veh, 2 h): 1.64
FC Hmox1 1448239_PM_at (LIVER, 100MMF-vs-Veh, 2 h): 2.41
FC Meis2 (1440091_PM_at) (LIVER, 100MMF-vs-Veh, 2 h): −1.67
FC Pgd (1436771_PM_x_at) (LIVER, 100MMF-vs-Veh, 2 h): 1.61
FC Pgd (1437380_PM_x_at) (LIVER, 100MMF-vs-Veh, 2 h): 1.65
FC Ppfibp2 (1417801_PM_a_at) (LIVER, 100MMF-vs-Veh, 2 h): 2.55
FC Prpf38b (1455016_PM_at) (LIVER, 100MMF-vs-Veh, 2 h): −1.53
FC Srxn1 (1419942_PM_at) (LIVER, 100MMF-vs-Veh, 2 h): 1.68
FC Srxn1 (1426875_PM_s_at) (LIVER, 100MMF-vs-Veh, 2 h): 1.63
FC Srxn1 (1451680_PM_at) (LIVER, 100MMF-vs-Veh, 2 h): 1.55
FC 2010003K11Rik (1424626_PM_at) (LIVER, 100MMF-vs-Veh, 7 h): 2.20
FC 4930588G05Rik (1430175_PM_at) (LIVER, 100MMF-vs-Veh, 7 h): −1.76
FC Akr1b8 (1448894_PM_at) (LIVER, 100MMF-vs-Veh, 7 h): 1.75
FC Bmp6 (1450759_PM_at) (LIVER, 100MMF-vs-Veh, 7 h): 1.65
FC Cda (1427357_PM_at) (LIVER, 100MMF-vs-Veh, 7 h): 1.92
FC Clec4n (1419627_PM_s_at) (LIVER, 100MMF-vs-Veh, 7 h): 2.40
FC Erc2 (1434582_PM_at) (LIVER, 100MMF-vs-Veh, 7 h): −1.95
FC Fzd8 (1445815_PM_at) (LIVER, 100MMF-vs-Veh, 7 h): −1.81
FC G6pdx (1448354_PM_at) (LIVER, 100MMF-vs-Veh, 7 h): 1.61
FC Marco (1449498_PM_at) (LIVER, 100MMF-vs-Veh, 7 h): 2.44
FC Nqo1 (1423627_PM_at) (LIVER, 100MMF-vs-Veh, 7 h): 2.20
FC Pir (1429001_PM_at) (LIVER, 100MMF-vs-Veh, 7 h): 1.50
FC Srxn1 (1419942_PM_at) (LIVER, 100MMF-vs-Veh, 7 h): 1.52
FC Srxn1 (1426875_PM_s_at) (LIVER, 100MMF-vs-Veh, 7 h): 1.53
FC Srxn1 (1451680_PM_at) (LIVER, 100MMF-vs-Veh, 7 h): 1.58
FC 1810055G02Rik (1425921_PM_a_at) (LIVER, 100MMF-vs-Veh, 12 h): 1.86
FC 4933433P14Rik (1431334_PM_a_at) (LIVER, 100MMF-vs-Veh, 12 h): 1.81
FC Ablim1 (1453103_PM_at) (LIVER, 100MMF-vs-Veh, 12 h): −1.51
FC Car3 (1460256_PM_at) (LIVER, 100MMF-vs-Veh, 12 h): −1.57
FC Clmn (1439117_PM_at) (LIVER, 100MMF-vs-Veh, 12 h): −1.54
FC Ctla2a (1448471_PM_a_at) (LIVER, 100MMF-vs-Veh, 12 h): 1.63
FC Dnajc12 (1417441_PM_at) (LIVER, 100MMF-vs-Veh, 12 h): 2.53
FC Fndc3b (1433833_PM_at) (LIVER, 100MMF-vs-Veh, 12 h): 1.66
FC Gadd45b (1450971_PM_at) (LIVER, 100MMF-vs-Veh, 12 h): 1.50
FC Gm3579 (1431214_PM_at) (LIVER, 100MMF-vs-Veh, 12 h): 2.74
FC Hyou1 (1423290_PM_at) (LIVER, 100MMF-vs-Veh, 12 h): 1.82
FC Hyou1 (1423291_PM_s_at) (LIVER, 100MMF-vs-Veh, 12 h): 1.52
FC Lrrc59 (1416235_PM_at) (LIVER, 100MMF-vs-Veh, 12 h): 1.65
FC Nme6 (1448574_PM_at) (LIVER, 100MMF-vs-Veh, 12 h): 1.57
FC Ppapdc1b (1428154_PM_s_at) (LIVER, 100MMF-vs-Veh, 12 h): 1.87
FC Ppm1k 1441988_PM_at (LIVER, 100MMF-vs-Veh, 12 h): −1.56
Number of genes, DMF Only / MMF Only (Liver): 34
Number of differentially expressed genes identified: Liver (2 h after last dosing): 23
Number of differentially expressed genes identified: Liver (7 h after last dosing): 15
Number of differentially expressed genes identified: Liver (12 h after last dosing): 16
Murine Liver DEGs: Abcc1 (1452233_PM_at) [1]: 1.86
Murine Liver DEGs: Akr1b8 (1448894_PM_at) [1]: 2.27
Murine Liver DEGs: Ampd3 (1422573_PM_at) [1]: 1.70
Murine Liver DEGs: Caprin1 (1448348_PM_at) [1]: −1.56
Murine Liver DEGs: Clec4d (1420804_PM_s_at) [1]: 2.05
Murine Liver DEGs: Cmah (1447019_PM_at) [1]: −1.55
Murine Liver DEGs: Csnk2a1 (1419038_PM_a_at) [1]: −1.62
Murine Liver DEGs: Figf (1438953_PM_at) [1]: 2.25
Murine Liver DEGs: Fxr1 (1452247_PM_at) [1]: −1.53
Murine Liver DEGs: Gclc (1424296_PM_at) [1]: 1.72
Murine Liver DEGs: Hmox1 (1448239_PM_at) [1]: 2.41
Murine Liver DEGs: Meis2 (1440091_PM_at) [1]: −1.67
Murine Liver DEGs: Mkln1 (1416734_PM_at) [1]: −1.69
Murine Liver DEGs: Pgd (1436771_PM_x_at) [1]: 1.61
Murine Liver DEGs: Ppfibp2 (1417801_PM_a_at) [1]: 2.55
Murine Liver DEGs: Prpf38b (1455016_PM_at) [1]: −1.53
Murine Liver DEGs: Ptprb (1453908_PM_at) [1]: −1.76
Murine Liver DEGs: Ptprg (1456070_PM_at) [1]: −1.85
